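GI50 = concentration required for 50% inhibition of growth. TGI: concentration producing complete growth inhibition.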
Legend:
Assay in all cases: inhibition of tumour cell growth, NCI panel, 384-well format
786-0 renal = tested on: 786-0 renal
A498 renal = tested on: A498 renal
A549 NSCLC = tested on: A549 NSCLC
ACHN renal = tested on: ACHN renal
BT-549 breast = tested on: BT-549 breast
CAKI-1 renal = tested on: CAKI-1 renal
CCRF-CEM leukemia = tested on: CCRF-CEM leukemia
COLO 205 colon = tested on: COLO 205 colon
DU-145 prostate = tested on: DU-145 prostate
EKVX NSCLC = tested on: EKVX NSCLC
HCC-2998 colon = tested on: HCC-2998 colon
HCT-116 colon = tested on: HCT-116 colon
HCT-15 colon = tested on: HCT-15 colon
HL-60(TB) leukemia = tested on: HL-60(TB) leukemia
HOP-62 NSCLC = tested on: HOP-62 NSCLC
HOP-92 NSCLC = tested on: HOP-92 NSCLC
HS 578T breast = tested on: HS 578T breast
HT29 colon = tested on: HT29 colon
IGROV1 ovarian = tested on: IGROV1 ovarian
K-562 leukemia = tested on: K-562 leukemia
KM12 colon = tested on: KM12 colon
LOX IMVI melanoma = tested on: LOX IMVI melanoma
M14 melanoma = tested on: M14 melanoma
MALME-3M melanoma = tested on: MALME-3M melanoma
MCF7 breast = tested on: MCF7 breast
MDA-MB-231 breast = tested on: MDA-MB-231 breast
MDA-MB-435 melanoma = tested on: MDA-MB-435 melanoma
MDA-MB-468 breast = tested on: MDA-MB-468 breast
MOLT-4 leukemia = tested on: MOLT-4 leukemia
NCI-H226 lung = tested on: NCI-H226 lung
NCI-H23 lung = tested on: NCI-H23 lung
NCI-H322M lung = tested on: NCI-H322M lung
NCI-H460 NSCLC = tested on: NCI-H460 NSCLC
NCI-H522 lung = tested on: NCI-H522 lung
NCI/ADR-RES ovarian = tested on: NCI/ADR-RES ovarian
OVCAR-3 ovarian = tested on: OVCAR-3 ovarian
OVCAR-4 ovarian = tested on: OVCAR-4 ovarian
OVCAR-5 ovarian = tested on: OVCAR-5 ovarian
OVCAR-8 ovarian = tested on: OVCAR-8 ovarian
PC-3 prostate = tested on: PC-3 prostate
RPMI-8226 leukemia = tested on: RPMI-8226 leukemia
RXF 393 renal = tested on: RXF 393 renal
SF-268 CNS = tested on: SF-268 CNS
SF-295 CNS = tested on: SF-295 CNS
SF-539 CNS = tested on: SF-539 CNS
SK-MEL-28 melanoma = tested on: SK-MEL-28 melanoma
SK-MEL-5 melanoma = tested on: SK-MEL-5 melanoma
SK-OV-3 ovarian = tested on: SK-OV-3 ovarian
SN12C renal = tested on: SN12C renal
SNB-19 CNS = tested on: SNB-19 CNS
SNB-75 CNS = tested on: SNB-75 CNS
SW-620 colon = tested on: SW-620 colon
T-47D breast = tested on: T-47D breast
TK-10 renal = tested on: TK-10 renal
U251 glioblastoma = tested on: U251 glioblastoma
UACC-257 melanoma = tested on: UACC-257 melanoma
UACC-62 melanoma = tested on: UACC-62 melanoma
UO-31 renal = tested on: UO-31 renal

## COc1ccc(-c2nc(N3CCOCC3)c3sc(CN(C)c4ncc(C(=O)NO)cn4)cc3n2)cn1
786-0 renal
  GI50: < 10 nM
  TGI: 28.4 nM
A498 renal
  GI50: < 10 nM
  TGI: 12.3 nM
A549 NSCLC
  GI50: < 10 nM
  TGI: < 10 nM
ACHN renal
  GI50: < 10 nM
  TGI: 13.3 nM
BT-549 breast
  GI50: < 10 nM
  TGI: 13.6 nM
CAKI-1 renal
  GI50: < 10 nM
  TGI: < 10 nM
CCRF-CEM leukemia
  GI50: < 10 nM
  TGI: < 10 nM
COLO 205 colon
  GI50: < 10 nM
  TGI: 11 nM
DU-145 prostate
  GI50: < 10 nM
  TGI: < 10 nM
EKVX NSCLC
  GI50: 14 nM
  TGI: 76.5 nM
HCC-2998 colon
  GI50: < 10 nM
  TGI: < 10 nM
HCT-116 colon
  GI50: < 10 nM
  TGI: < 10 nM
HCT-15 colon
  GI50: < 10 nM
  TGI: 23.2 nM
HL-60(TB) leukemia
  GI50: < 10 nM
  TGI: < 10 nM
HOP-62 NSCLC
  GI50: < 10 nM
  TGI: 17.4 nM
HOP-92 NSCLC
  GI50: < 10 nM
  TGI: 23.6 nM
HS 578T breast
  GI50: < 10 nM
  TGI: 16 nM
HT29 colon
  GI50: < 10 nM
  TGI: 12.5 nM
IGROV1 ovarian
  GI50: < 10 nM
  TGI: 10.6 nM
K-562 leukemia
  GI50: < 10 nM
  TGI: < 10 nM
KM12 colon
  GI50: < 10 nM
  TGI: 15.1 nM
LOX IMVI melanoma
  GI50: < 10 nM
  TGI: < 10 nM
M14 melanoma
  GI50: < 10 nM
  TGI: < 10 nM
MALME-3M melanoma
  GI50: < 10 nM
  TGI: < 10 nM
MCF7 breast
  GI50: < 10 nM
  TGI: < 10 nM
MDA-MB-231 breast
  GI50: < 10 nM
  TGI: < 10 nM
MDA-MB-435 melanoma
  GI50: < 10 nM
  TGI: 10.1 nM
MDA-MB-468 breast
  GI50: < 10 nM
  TGI: < 10 nM
MOLT-4 leukemia
  GI50: < 10 nM
  TGI: < 10 nM
NCI-H226 lung
  GI50: < 10 nM
  TGI: 33 nM
NCI-H23 lung
  GI50: < 10 nM
  TGI: < 10 nM
NCI-H322M lung
  GI50: < 10 nM
  TGI: 19.1 nM
NCI-H460 NSCLC
  GI50: < 10 nM
  TGI: 11.7 nM
NCI-H522 lung
  GI50: < 10 nM
  TGI: < 10 nM
NCI/ADR-RES ovarian
  GI50: < 10 nM
  TGI: 12.5 nM
OVCAR-3 ovarian
  GI50: < 10 nM
  TGI: < 10 nM
OVCAR-4 ovarian
  GI50: 13.9 nM
  TGI: 40.7 nM
OVCAR-5 ovarian
  GI50: < 10 nM
  TGI: 16.9 nM
OVCAR-8 ovarian
  GI50: < 10 nM
  TGI: 10.1 nM
PC-3 prostate
  GI50: < 10 nM
  TGI: 10.7 nM
RPMI-8226 leukemia
  GI50: < 10 nM
  TGI: < 10 nM
RXF 393 renal
  GI50: < 10 nM
  TGI: < 10 nM
SF-268 CNS
  GI50: < 10 nM
  TGI: < 10 nM
SF-295 CNS
  GI50: < 10 nM
  TGI: 18.9 nM
SF-539 CNS
  GI50: < 10 nM
  TGI: 13.6 nM
SK-MEL-28 melanoma
  GI50: < 10 nM
  TGI: 17.9 nM
SK-MEL-5 melanoma
  GI50: < 10 nM
  TGI: < 10 nM
SK-OV-3 ovarian
  GI50: < 10 nM
  TGI: < 10 nM
SN12C renal
  GI50: < 10 nM
  TGI: 16.3 nM
SNB-19 CNS
  GI50: < 10 nM
  TGI: 18.7 nM
SNB-75 CNS
  GI50: < 10 nM
  TGI: 22.6 nM
SW-620 colon
  GI50: < 10 nM
  TGI: < 10 nM
T-47D breast
  GI50: < 10 nM
  TGI: < 10 nM
TK-10 renal
  GI50: 11.6 nM
  TGI: 28.7 nM
U251 glioblastoma
  GI50: < 10 nM
  TGI: < 10 nM
UACC-257 melanoma
  GI50: < 10 nM
  TGI: < 10 nM
UACC-62 melanoma
  GI50: < 10 nM
  TGI: < 10 nM
UO-31 renal
  GI50: < 10 nM
  TGI: 26.9 nM

## CCN(CC)CCCCNc1ncc2cc(-c3cc(OC)cc(OC)c3)c(NC(=O)NC(C)(C)C)nc2n1
786-0 renal
  GI50: 3050 nM
  TGI: 12700 nM
A498 renal
  GI50: 2480 nM
  TGI: 15000 nM
A549 NSCLC
  GI50: 6040 nM
  TGI: 18500 nM
ACHN renal
  GI50: 4170 nM
  TGI: 15800 nM
BT-549 breast
  GI50: 2490 nM
  TGI: 12800 nM
CAKI-1 renal
  GI50: 1650 nM
  TGI: 10900 nM
CCRF-CEM leukemia
  GI50: 2160 nM
  TGI: 4680 nM
COLO 205 colon
  GI50: 7160 nM
  TGI: 19400 nM
DU-145 prostate
  GI50: 7200 nM
  TGI: 19500 nM
EKVX NSCLC
  GI50: 5430 nM
  TGI: 17500 nM
HCC-2998 colon
  GI50: 3010 nM
  TGI: 10500 nM
HCT-116 colon
  GI50: 2860 nM
  TGI: 8340 nM
HCT-15 colon
  GI50: 3020 nM
  TGI: 11600 nM
HL-60(TB) leukemia
  GI50: 1780 nM
  TGI: 3190 nM
HOP-62 NSCLC
  GI50: 6070 nM
  TGI: 18200 nM
HOP-92 NSCLC
  GI50: 7760 nM
  TGI: 20100 nM
HS 578T breast
  GI50: 2280 nM
  TGI: 9130 nM
HT29 colon
  GI50: 1600 nM
  TGI: 3460 nM
IGROV1 ovarian
  GI50: 3560 nM
  TGI: 16000 nM
K-562 leukemia
  GI50: 2560 nM
  TGI: 6170 nM
KM12 colon
  GI50: 5320 nM
  TGI: 17300 nM
LOX IMVI melanoma
  GI50: 2460 nM
  TGI: 6580 nM
M14 melanoma
  GI50: 1900 nM
  TGI: 3820 nM
MALME-3M melanoma
  GI50: 1880 nM
  TGI: 3350 nM
MCF7 breast
  GI50: 4040 nM
  TGI: 16200 nM
MDA-MB-231 breast
  GI50: 9090 nM
  TGI: 21100 nM
MDA-MB-435 melanoma
  GI50: 10900 nM
  TGI: 23000 nM
MDA-MB-468 breast
  GI50: 3810 nM
  TGI: 10100 nM
MOLT-4 leukemia
  GI50: 1640 nM
  TGI: 3260 nM
NCI-H226 lung
  GI50: 35.8 nM
  TGI: 17600 nM
NCI-H23 lung
  GI50: 10900 nM
  TGI: 22900 nM
NCI-H322M lung
  GI50: 6370 nM
  TGI: 19400 nM
NCI-H460 NSCLC
  GI50: 3570 nM
  TGI: 12600 nM
NCI-H522 lung
  GI50: 10100 nM
  TGI: 21700 nM
NCI/ADR-RES ovarian
  GI50: 5260 nM
  TGI: 17200 nM
OVCAR-3 ovarian
  GI50: 4050 nM
  TGI: 14500 nM
OVCAR-4 ovarian
  GI50: 13600 nM
  TGI: 26600 nM
OVCAR-5 ovarian
  GI50: 9740 nM
  TGI: 21600 nM
OVCAR-8 ovarian
  GI50: 5320 nM
  TGI: 17500 nM
PC-3 prostate
  GI50: 7340 nM
  TGI: 19600 nM
RPMI-8226 leukemia
  GI50: 4310 nM
  TGI: 14300 nM
RXF 393 renal
  GI50: 1730 nM
  TGI: 5850 nM
SF-268 CNS
  GI50: 1530 nM
  TGI: 4770 nM
SF-295 CNS
  GI50: 12700 nM
  TGI: 25500 nM
SF-539 CNS
  GI50: 2220 nM
  TGI: 8590 nM
SK-MEL-28 melanoma
  GI50: 3230 nM
  TGI: 8340 nM
SK-MEL-5 melanoma
  GI50: 1920 nM
  TGI: 4480 nM
SK-OV-3 ovarian
  GI50: 3770 nM
  TGI: 14000 nM
SN12C renal
  GI50: 4160 nM
  TGI: 15000 nM
SNB-19 CNS
  GI50: 13600 nM
  TGI: 26700 nM
SNB-75 CNS
  GI50: 613 nM
  TGI: 13800 nM
SW-620 colon
  GI50: 11300 nM
  TGI: 23400 nM
T-47D breast
  GI50: 2820 nM
  TGI: 8190 nM
TK-10 renal
  GI50: 10600 nM
  TGI: 22700 nM
U251 glioblastoma
  GI50: 3840 nM
  TGI: 12600 nM
UACC-257 melanoma
  GI50: 1980 nM
  TGI: 3410 nM
UACC-62 melanoma
  GI50: 5330 nM
  TGI: 17000 nM
UO-31 renal
  GI50: 8380 nM
  TGI: 20700 nM
